ChEMBL document CHEMBL1921757, “Small molecule probes of the receptor binding site in the Vibrio cholerae CAI-1 quorum sensing circuit” (Bioorg Med Chem, 2011)

Legend:
Vibrio cholerae = test: Antibacterial activity against Vibrio cholerae MM920 assessed as growth inhibition after 4 hrs by spectrophotometry; assay type: organism-based; details: in vivo
[1] = biological target: T1, CAI-1 autoinducer sensor kinase/phosphatase CqsS (Vibrio cholerae serotype O1 (strain ATCC 39315 / El Tor Inaba N16961)) (UniProt Q9KM66); test: Ratio of compound IC50 to Ph-CAI-1 IC50 for CqsS receptor in Vibrio cholerae MM920 assessed as inhibition of quorum sensing regulated CAI-1 induced bioluminescence after 4 hrs by scintillation counting
T1 sequence (whole entry): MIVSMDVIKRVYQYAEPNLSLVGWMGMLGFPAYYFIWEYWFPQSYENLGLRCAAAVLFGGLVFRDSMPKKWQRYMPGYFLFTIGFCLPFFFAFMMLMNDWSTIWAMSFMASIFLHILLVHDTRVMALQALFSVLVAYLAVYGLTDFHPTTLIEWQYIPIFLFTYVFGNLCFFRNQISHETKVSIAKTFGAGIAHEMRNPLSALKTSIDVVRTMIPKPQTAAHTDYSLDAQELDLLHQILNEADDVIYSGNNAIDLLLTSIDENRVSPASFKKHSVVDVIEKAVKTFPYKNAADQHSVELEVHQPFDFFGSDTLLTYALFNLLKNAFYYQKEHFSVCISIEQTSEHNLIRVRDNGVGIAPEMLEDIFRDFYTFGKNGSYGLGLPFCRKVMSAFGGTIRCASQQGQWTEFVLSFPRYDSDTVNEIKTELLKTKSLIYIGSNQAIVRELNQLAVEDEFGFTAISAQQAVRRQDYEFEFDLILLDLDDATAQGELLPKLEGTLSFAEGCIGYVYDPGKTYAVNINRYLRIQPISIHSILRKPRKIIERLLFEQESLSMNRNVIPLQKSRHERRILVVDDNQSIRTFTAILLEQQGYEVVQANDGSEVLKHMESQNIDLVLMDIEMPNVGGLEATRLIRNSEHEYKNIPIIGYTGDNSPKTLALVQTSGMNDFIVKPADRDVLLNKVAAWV

[2] = biological target: T2, CAI-1 autoinducer sensor kinase/phosphatase CqsS (Vibrio cholerae serotype O1 (strain ATCC 39315 / El Tor Inaba N16961), UniProt Q9KM66); test: Antagonist activity at CqsS receptor in Vibrio cholerae MM920 assessed as inhibition of quorum sensing regulated CAI-1 induced bioluminescence after 4 hrs by scintillation counting; assay type: functional
T2 sequence (Q9KM66 whole entry): T1 sequence (whole entry)

[3] = biological target: T1, CAI-1 autoinducer sensor kinase/phosphatase CqsS (Vibrio cholerae serotype O1 (strain ATCC 39315 / El Tor Inaba N16961)); test: Antagonist activity at CqsS receptor in Vibrio cholerae MM920 assessed as inhibition of quorum sensing regulated CAI-1 induced bioluminescence after 4 hrs by scintillation counting relative to Ph-CAI-1; assay type: functional
[4] = biological target: T2, CAI-1 autoinducer sensor kinase/phosphatase CqsS; test: Agonist activity at CqsS receptor in cqsA-deficient, luxQ-deficient Vibrio cholerae MM920 harboring cosmid pBB1 carrying Vibrio harveyi luxCDABE gene assessed as induction of quorum sensing regulated bioluminescence after 4 hrs by scintillation counting; assay type: functional
[5] = biological target: T1, CAI-1 autoinducer sensor kinase/phosphatase CqsS (Vibrio cholerae serotype O1 (strain ATCC 39315 / El Tor Inaba N16961)); test: Agonist activity at CqsS receptor in cqsA-deficient, luxQ-deficient Vibrio cholerae MM920 harboring cosmid pBB1 carrying Vibrio harveyi luxCDABE gene assessed as quorum sensing regulated bioluminescence after 4 hrs by scintillation counting relative to (S)-CAI-1; assay type: functional
[6] = biological target: T1, CAI-1 autoinducer sensor kinase/phosphatase CqsS (Vibrio cholerae serotype O1 (strain ATCC 39315 / El Tor Inaba N16961)); test: Ratio of compound EC50 to (S)-CAI-1 EC50 for CqsS receptor in cqsA-deficient, luxQ-deficient Vibrio cholerae MM920 harboring cosmid pBB1 carrying Vibrio harveyi luxCDABE gene assessed as induction of quorum sensing regulated bioluminescence after 4 hrs by scintillation counting
[7] = biological target: T1, CAI-1 autoinducer sensor kinase/phosphatase CqsS (Vibrio cholerae serotype O1 (strain ATCC 39315 / El Tor Inaba N16961)); test: Agonist activity at CqsS receptor in cqsA-deficient, luxQ-deficient Vibrio cholerae MM920 harboring cosmid pBB1 carrying Vibrio harveyi luxCDABE gene assessed as maximal quorum sensing regulated bioluminescence at 50 uM after 4 hrs by scintillation counting relative to (S)-CAI-1; assay type: functional

Compound	growth inhibition (GI) (Vibrio cholerae)	Ratio IC50 [1]	IC50 [2] [µM]	Imax [3] [%]	EC50 [4] [µM]	Emax [5] [%]	Ratio EC50 [6]	Emax [7] [%]
CCCCCCCCCC(=O)[C@@H](O)CC	Not Active	–	–	–	–	–	–	–
CCCCCCCCCC(=O)C(O)c1ccccc1O (racemic)	Not Active	3.4	172	144	–	–	–	–
CCCCCCCCCC(=O)C(O)c1cccc(O)c1 (racemic)	Not Active	0.71	36	123	–	–	–	–
CCCCCCCCCC(=O)C(O)c1ccc(C)cc1 (racemic)	Not Active	2.2	114	99	–	–	–	–
CCCCCCCCCC(O)C(O)CC (mixture of isomers)	Not Active	–	–	–	4.3	83	18	–
CCCCCCCCCC(=O)C(O)c1ccc(OC)cc1 (racemic)	Not Active	> 9	> 500	–	–	–	–	–
CCCCCCCCCC(=O)C(O)c1cccc(Br)c1 (racemic)	Not Active	> 9	> 500	–	–	–	–	–
CCCCCCCCCC(=O)C(O)c1ccccc1C (racemic)	Not Active	> 9	> 500	–	–	–	–	–
CCCCCCCCCC(=O)C(N)c1ccccc1.Cl (racemic)	Not Active	> 9	> 500	–	–	–	–	–
CCCCCCCCCC(=O)C(=O)CC	Not Active	–	–	–	3.2	92	14	–
CCCCCCCCCCC(O)CC (configuration not stated)	Not Active	–	–	–	> 50	–	> 200	–
CCCCCCCCCC(=O)C(O)c1ccccc1Cl (racemic)	Not Active	> 9	> 500	–	–	–	–	–
CCCCCCCCCC(O)C(=O)CC (configuration not stated)	Not Active	–	–	–	–	38	84	–
CCCCCCCCCC(=O)C(O)C(C)(C)C (racemic)	Not Active	–	–	–	> 50	–	> 200	–
CCCCCCCC(=O)[C@@H](O)CC	Not Active	–	–	–	–	–	–	–
CCCCCCCCCC(=O)C(O)c1ccc(C)c(C)c1 (racemic)	Not Active	> 9	> 500	–	–	–	–	–
CCCCCCCCCC(=O)C(O)c1ccc(O)c(O)c1 (racemic)	Not Active	3.4	174	122	–	–	–	–
CCCCCC(=O)[C@@H](O)CC	Not Active	–	–	–	> 50	–	> 200	27
CCCCCCCCCC(=O)C(S)CC (configuration not stated)	Not Active	–	–	–	1.6	67	8.6	–
CCCCCCCCCC(=O)CCC	Not Active	–	–	–	> 50	–	> 200	–
CCCCCCCCC(=O)[C@@H](O)CC	Not Active	–	–	–	1.1	100	4.6	–
CCCCCCCC(=O)[C@H](O)CC	Not Active	–	–	–	–	–	–	–
CCCCCCCCCC(=O)C(O)CCC (racemic)	Not Active	–	–	–	0.78	84	6	–
CCCCCCCCCC(=O)C(O)c1ccccc1Br (racemic)	Not Active	> 9	> 500	–	–	–	–	–
CCCCCCCCCC(=O)C(O)c1ccccc1 (racemic)	Not Active	1	55	100	–	–	–	–

Compound	growth inhibition (GI) (Vibrio cholerae)	Ratio IC50 [1]	IC50 [2] [µM]	Imax [3] [%]	EC50 [4] [µM]	Emax [5] [%]	Ratio EC50 [6]	Emax [7] [%]
CCCCCCCCCC(=O)C(O)c1cccc(F)c1 (racemic)	Not Active	3.5	178	112	–	–	–	–
CCCCCCCCC(=O)[C@H](O)CC	Not Active	–	–	–	1.61	95	6.7	–
CCCCCCCCCC(=O)C(O)c1ccc(Cl)cc1 (racemic)	Not Active	> 9	> 500	–	–	–	–	–
CCCCCCCCCC(=O)C(O)c1cccc(C)c1 (racemic)	Not Active	0.91	46	58	–	–	–	–
CCCCCCCCCC(=O)[C@H](C)O	Not Active	–	–	–	0.34	96	2.6	–
CCCCCCCCCC(=O)C(O)c1ccccc1OC (racemic)	Not Active	> 9	> 500	–	–	–	–	–
CCCCCCCCCC(=O)C(O)c1ccc(Br)cc1 (racemic)	Not Active	2.6	185	71	–	–	–	–
CCCCCCCCCC(=O)C(O)c1cc(F)ccc1F (racemic)	Not Active	1.3	68	48	–	–	–	–
CCCCCCCCCC(=O)C(O)Cc1ccccc1 (racemic)	Not Active	1.9	136	124	–	–	–	–
CCCCCCCCCC(=O)C(O)c1cccc(Cl)c1 (racemic)	Not Active	> 9	> 500	–	–	–	–	–
CCCCCCCCCC(=O)C(O)c1cccc(OC)c1 (racemic)	Not Active	> 9	> 500	–	–	–	–	–
CCCCCCC(=O)[C@@H](O)CC	Not Active	–	–	–	> 50	–	> 200	59
CCCCCCCCCC(=O)C(N)CC.Cl (configuration not stated)	Not Active	–	–	–	0.21	105	0.27	–
CCCCCCCCCC(=O)C(O)c1ccc(O)cc1 (racemic)	Not Active	1.5	78	119	–	–	–	–
CCCCCCCCCCCCC(=O)[C@@H](O)CC	Not Active	–	–	–	> 50	–	> 200	45
CCCCCCCCCC(=O)C(Br)CC (configuration not stated)	Not Active	–	–	–	2.4	73	13	–
CCCCCCCCCCC(=O)CC	Not Active	–	–	–	> 50	–	> 200	–
CCCCCCCCCCC(=O)[C@@H](O)CC	Not Active	–	–	–	2.09	98	8.4	–
CCCCCCCCCC(O)CCC (configuration not stated)	Not Active	–	–	–	> 50	–	> 200	–
CCCCCCCCCC(=O)C(O)c1ccc(F)cc1 (racemic)	Not Active	2.7	137	125	–	–	–	–
CCCCCCCCCC(=O)[C@H](O)CC	Not Active	–	–	–	–	–	–	–
CCCCCCCCCC(=O)C(Cl)CC (configuration not stated)	Not Active	–	–	–	> 50	24	> 200	–
CCCCCCCCCC(=O)C(O)c1ccccc1F (racemic)	Not Active	1.5	74	105	–	–	–	–
CCCCCCCCCC(=O)C(O)C(C)C (racemic)	Not Active	–	–	–	7.16	71	21	–
